Key:
SK-N-MC cells = test: MTT cellular proliferation assay, SK-N-MC neuroepithelioma cells; format: cell-based, human; settings: for Therapeutic index SK-N-MC: IC50 of MRC-5 cells/IC50 of SK-N-MC cells, 72 h/37 °C; for IC50: SK-N-MC, 37 °C, MTT, mean ± SD (3 experiments)
Method: (§1) The anti-proliferative activity of Dp4e4mT relative to its complexes with Fe(III), Co(III), Ni(II), Cu(II), Zn(II), Ga(III), and Pd(II) was examined over incubation periods of 24-, 48-, and 72 h/37 °C (Table 2). These studies were performed using human SK-N-MC neuroepithelioma and AsPC-1 pancreatic adenocarcinoma cells that we have previously examined to assay other ligands.[15,28,43] […]
(§2) All cell lines were procured from the American Type Culture Collection (ATCC; Manassas, VA). The SK-N-MC neuroepithelioma cell line and the mortal MRC-5 fibroblasts were cultured in minimum essential medium (Sigma-Aldrich), while the AsPC-1 cell line was cultured in Roswell Park Memorial Institute 1640 medium (Thermo Fisher Scientific, MA, USA). Both media were supplemented with 10% fetal calf serum, non-essential amino acids (1 mM), sodium pyruvate (1 mM), L-glutamine (2 mM), penicillin (100 U/mL), streptomycin (100 U/mL), and Fungizone (0.5 µg/mL). Cells were maintained at 37 °C in an incubator under a humidified atmosphere with 5% CO 2, following established protocols. 11 Cellular Proliferation Assay
(§3) Cellular proliferation was evaluated through the established 3-(4,5-dimethylthiazol-2-yl)-2,5-diphenyltetrazolium bromide (MTT) proliferation assay, validated by viable cell counts.12 […]
(§4) Ligands and complexes were dissolved in DMSO to make a stock solution of 10 mM, subsequently diluted in culture media. For cell culture experiments, the DMSO's maximum concentration remained below 0.5% (v/v), with no discernible impact on proliferation.12 MTT […]
(§5) Trypan blue staining.12 Analysis of the data was executed employing MARS Data Analysis Software (BMG LabTech; version 3.30). The concentration of agents necessary to inhibit cellular proliferation by 50% (IC 50) was then calculated. […]

AsPC-1 cells = test: MTT cellular proliferation assay, AsPC-1 pancreatic adenocarcinoma cells; format: cell-based, human; settings: for IC50: 37 °C, MTT, mean ± SD (3 experiments); for Therapeutic index AsPC-1: IC50 of MRC-5 cells/IC50 of AsPC-1 cells, 72 h/37 °C
Method: as §1, §2, §3, §4, §5

MRC-5 fibroblasts = test: MTT cellular proliferation assay, mortal MRC-5 fibroblasts; format: cell-based; settings: 37 °C, mean ± SD (3 experiments)
Method: (§6) To examine the selectivity of the Dp4e4mT complexes against neoplastic versus normal mortal cells, their anti-proliferative efficacy was compared to mortal MRC-5 fibroblasts after a 72 h/37 °C incubation (Table 3). […] To further examine selectivity, an in vitro therapeutic index was calculated as per our previous investigations.[28,57,59,66,67] This parameter is derived from the ratio of the IC50 of MRC-5 cells/IC50 of SK-N-MC or AsPC-1 cells; with high ratios indicating greater selective anti-proliferative activity against neoplastic cells (Table 3). The mean therapeutic index is the average of the therapeutic indices calculated for both tumor cell-types. […] The mean therapeutic index of Dp4e4mT exceeded that obtained for clinically trialed DpC (157), as well as that of Dp44mT (112) and DFO (6). […]
as §2, §3, §4, §5

SK-N-MC and AsPC-1 cells = test: MTT cellular proliferation assay, values stated over both tumor cell-types; format: cell-based, human; settings: for Mean therapeutic index: average of the therapeutic indices for SK-N-MC and AsPC-1 vs MRC-5, 72 h/37 °C
Method: The anti-proliferative activity of Dp4e4mT relative to its complexes with Fe(III), Co(III), Ni(II), Cu(II), Zn(II), Ga(III), and Pd(II) was examined over incubation periods of 24-, 48-, and 72 h/37 °C (Table 2). These studies were performed using human SK-N-MC neuroepithelioma and AsPC-1 pancreatic adenocarcinoma cells that we have previously examined to assay other ligands.[15,28,43]
as §6, §2, §3, §4, §5

[1] = molecular target: T1, oxy-Hb in intact human erythrocytes (Homo sapiens, UniProt P68871+P69905); test: Oxidation of oxy-Hb in intact human erythrocytes; format: cell-based; settings: 10 μM, 3 h/37 °C
T1 construct: Physiologically, oxy-Hb is found in erythrocytes; endogenous in cells; host or cells: intact human erythrocytes from fresh blood of healthy donors
Method: Fig. 7 (A and B) Investigation of the effects of Dp4e4mT and its Fe(III), Co(III), Ni(II), Cu(II), Zn(II), Ga(III), and Pd(II) complexes versus DFO, Dp44mT, DpC and their Fe(III) complexes (10 μM) on met-Hb generation (% zero time) after an incubation of 1–3 h/20 °C with purified oxy-Hb (40 μM). (C) Investigation of the effects of Dp4e4mT and its Fe(III), Co(III), Ni(II), Cu(II), Zn(II), Ga(III), or Pd(II) complexes relative to the positive controls DFO, Dp44mT, DpC, and their Fe(III) complexes (10 μM) on oxy-Hb oxidation in intact human erythrocytes after a 3 h/37 °C incubation. Results are mean ± SD (3 experiments).
Physiologically, oxy-Hb is found in erythrocytes, and in the current investigation, the ligands and complexes (10 μM) were incubated with intact human erythrocytes for 3 h/37 °C to assess their effects on oxy-Hb oxidation (Fig. 7C). As expected from our previous studies,[28,39] […]
In experiments examining the activity of the agents, all complexes were dissolved in 1,2-propanediol, then diluted to 10 µM in PBS (pH 7.2). […]
1800; Shimadzu, Kyoto, Japan). Concentrations of met-Mb and met-Hb, as well as reduced-Mb and reduced-Hb, were determined at 409 nm and 435 nm, respectively. Concentrations of oxy-Mb and oxy-Hb were determined at 544 nm and 582 nm, respectively. 17 Oxidation of Oxy-Hb in Human Erythrocytes
Oxidation of oxy-Hb in human erythrocytes was performed by standard methods using fresh blood from healthy donors after collection in Vacutainer® collection tubes (BD, Plymouth, UK).8 Erythrocytes centrifuged (480 xg/5 min/4°C) and then washed in HBSS, and subsequently resuspended in this buffer. Incubation of the erythrocytes (15% hematocrit) in the absence or presence of the agents (10 μM) was performed for 3 h/37°C. The erythrocytes were […]

T1 sequence (P69905 2-142 limits assumed): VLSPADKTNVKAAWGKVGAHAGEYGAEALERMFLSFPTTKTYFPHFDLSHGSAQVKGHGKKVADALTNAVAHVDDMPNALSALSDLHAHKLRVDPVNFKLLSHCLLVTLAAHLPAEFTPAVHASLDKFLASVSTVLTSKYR
T1 sequence (P68871 2-147 limits assumed): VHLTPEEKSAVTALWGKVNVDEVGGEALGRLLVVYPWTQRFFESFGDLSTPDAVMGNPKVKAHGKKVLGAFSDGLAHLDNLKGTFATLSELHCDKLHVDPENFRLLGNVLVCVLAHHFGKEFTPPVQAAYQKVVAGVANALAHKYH

IC50 (SK-N-MC cells; 24 h)	IC50 (SK-N-MC cells; 48 h)	IC50 (SK-N-MC cells; 72 h)	IC50 (AsPC-1 cells; AsPC-1, 24 h)	IC50 (AsPC-1 cells; AsPC-1, 48 h)	IC50 (AsPC-1 cells; AsPC-1, 72 h)	IC50 (SK-N-MC cells; Homo sapiens, 24 h)	IC50 (SK-N-MC cells; Homo sapiens, 48 h)	IC50 (SK-N-MC cells; Homo sapiens, 72 h)	IC50 (AsPC-1 cells; Homo sapiens, ASPC1, AsPC-1, 24 h)	IC50 (AsPC-1 cells; Homo sapiens, ASPC1, AsPC-1, 48 h)	IC50 (AsPC-1 cells; Homo sapiens, ASPC1, AsPC-1, 72 h)	IC50 (SK-N-MC and AsPC-1 cells; Homo sapiens, SK-N-MC and AsPC-1, after 72 h, read-out: IC50 (range over both cell-types))	Structure (SMILES)	Therapeutic index SK-N-MC (SK-N-MC cells)	Therapeutic index AsPC-1 (AsPC-1 cells)	IC50 (MRC-5 fibroblasts; MRC-5, 72 h)	Mean therapeutic index (SK-N-MC and AsPC-1 cells)	oxy-Hb oxidation in erythrocytes versus the control (in words) [1]	IC50 (MRC-5 fibroblasts; Homo sapiens, MRC5, MRC-5, 72 h)
0.516 ± 0.006 µM	0.034 ± 0.006 µM	0.004 ± 0.001 µM	1.14 ± 0.034 µM	0.044 ± 0.007 µM	0.003 ± 0.003 µM	–	–	–	–	–	–	–	CCN(C)C([S-])=NN=C(c1ccccn1)c1ccccn1.CCN(C)C([S-])=NN=C(c1ccccn1)c1ccccn1.[Cu+2] [[Cu(Dp4e4mT)2]]	85	113	0.342 ± 0.121 µM	99	negligible effects on oxy-Hb oxidation	–
–	–	–	–	–	–	> 100 µM	45.27 ± 0.061 µM	8.18 ± 2.46 µM	> 100 µM	22.76 ± 0.084 µM	3.07 ± 0.585 µM	3.07 to 8.18 µM	CC(=O)N(O)CCCCCNC(=O)CCC(=O)N(O)CCCCCNC(=O)CCC(=O)N(O)CCCCCN [DFO, desferrioxamine, reference compound]	3	9	–	6	did not induce any significant (p > 0.05) increase in oxy-Hb oxidation	28.91 ± 0.101 µM

From PMC10793205, “Differential transmetallation of complexes of the anti-cancer thiosemicarbazone, Dp4e4mT: effects on anti-proliferative efficacy, redox activity, oxy-myoglobin and oxy-hemoglobin oxidation” (Chemical Science, 2023)
